Source: patent publication US20220257610A1, “Enhancing drug activity through accentuated buccal/sublingual administration” (priority 2019, published 2022)
Like-named read-outs stand apart in the source and are kept apart here.

Legend:
[1] = Comparative dosage study, sleep times in humans; assay type: in vivo; details: much lower dose with adjuvant, compared with oral
Text: The best method for carrying out the invention: Alprazolam and adjuvant are formulated into sublingual tablets/sprays by conventional methods and administered and sleep times recorded for humans as well as animals.

[2] = same or similar dose with permeability enhancers, compared with oral
Protocol: The clinical trials were conducted in two parts. The first part consisted of the following stages.
Further trials were carried out to determine the duration of action glipizide and adjuvant combination.
To test the efficacy of adjuvant we compared the efficacy of 5 mg of sub-lingual glipizide with adjuvant, with 5 mg of sublingual glipizide without adjuvant. […] Finally tests were carried out to determine whether the adjuvant used participates in receptor binding process. Keeping the amount of glipizide at 5 mg the quantity of adjuvant were doubled.

Structure (SMILES) | increase in effect [1] [%] | increase in effect [2] [%]
Cc1nnc2n1-c1ccc(Cl)cc1C(c1ccccc1)=NC2 [alprazolam] | 200 | –
Cc1cnc(C(=O)NCCc2ccc(S(=O)(=O)NC(=O)NC3CCCCC3)cc2)cn1 [glipizide] | – | 3200
